Results published in patent US7897578B2, “Peptides with anti-proliferative activity” (Societe de Conseils de Recherches et d'Applications …, priority 2006, dated 2011).
No end group written: not given here.

Columns and labels:
[1] = tested on: human SHSY-5Y neuroblastoma tumour xenograft; assay: In vivo cell proliferation test, SHSY-5Y cells xenografted into athymic mice; set-up: species or system athymic balb-c NCr-nu/nu mice; details: for reduction in the size of the tumour: after 21 days
Method: 3/In vivo Cell Proliferation Test on Cells of the SHSY-5Y Type with Compound 1:
(§1) Cancerous cells from human SHSY-5Y neuroblastomas (Code ATCC: CRL-2266) are cultured in DMEM medium (Dulbecco's Modified Eagle's Medium) containing 100 U/ml of penicillin and 100 μg/ml of streptomycin sulphate, complemented with 10% foetal calf serum. The cells thus cultured are then xenografted by sub-cutaneous route into the flanks of athymic balb-c NCr-nu/nu mice, aged 4 to 6 weeks.
After a latent period of several days following the graft, the SHSY-SY cells proliferate and form a small tumour (approximately 70 mm^3) which is obvious under the flank of the animal.
Compound 1 is, at this stage of growth of the tumour, injected by intra-peritoneal route in doses of 5 and 10 mg/kg.
The results are reproduced in FIG. 2 describing the effect of compound 1 on growth kinetics and tumour volume.

[2] = Toxicity test in xenografted athymic mice (weight of the animals); type: in vivo; details: 5 and 10 mg/kg intra-peritoneal
Method: 4/Toxicity Test of Compound 1:
as §1, with “mice.” for “balb-c NCr-nu/nu mice, aged 4 to 6 weeks.”
After a latent period of several days, the SHSY-5Y cells proliferate and form a small, obvious tumour (approximately 70 mm^3).
Compound 1, at this stage of the tumour's growth, is injected by intra-peritoneal route in doses of 5 and 10 mg/kg.
The results are reproduced in FIG. 3 describing the development of the weight of the animals as a function of time, which is an indicator of the possible toxicity of the products tested in this athymic mouse model.

YTVLSVGPGGLRSGRLPLQPRVQLDER-NH2 [Compound 1]
growth kinetics of the tumour ([1]; 5 mg/kg intra-peritoneal): slowing down
reduction in the size of the tumour ([1]; 5 mg/kg intra-peritoneal): approximately 20%
growth kinetics of the tumour ([1]; 10 mg/kg intra-peritoneal): very clear slowing down
reduction in the size of the tumour ([1]; 10 mg/kg intra-peritoneal): approximately 50%
anti-tumour activity ([1]; intra-peritoneal, 5 and 10 mg/kg, SHSY-5Y xenograft): dose-dependant anti-tumour activity
toxicity ([2]; inferred from animal weight): apparent absence of toxicity
effect on the weight of the animals ([2]; xenografted athymic mice): no effect
